From patent US11236055B2 (Venenum Biodesign, LLC, priority 2016, dated 2022)

Experiments:
Assay type in all cases: cell-based
mouse TGR5 receptor [1] = target: T1, mouse TGR5 receptor (Mus musculus, UniProt Q80SS6); experiment: Mouse TGR5 cAMP production assay (luminescent, DiscoveRx cAMP XS+); conditions: HEK293-EBNA cells overexpressing mouse TGR5, luminescent cAMP XS+; coded A-D; read-out: Mouse TGR5 Lum. cAMP Activity (EC50)
T1 construct: expressed in transfected cells; host or cells: HEK293-EBNA (293 c18, ATCC CRL10852), Hygromycin B selection
T1 sequence (Q80SS6 1-329): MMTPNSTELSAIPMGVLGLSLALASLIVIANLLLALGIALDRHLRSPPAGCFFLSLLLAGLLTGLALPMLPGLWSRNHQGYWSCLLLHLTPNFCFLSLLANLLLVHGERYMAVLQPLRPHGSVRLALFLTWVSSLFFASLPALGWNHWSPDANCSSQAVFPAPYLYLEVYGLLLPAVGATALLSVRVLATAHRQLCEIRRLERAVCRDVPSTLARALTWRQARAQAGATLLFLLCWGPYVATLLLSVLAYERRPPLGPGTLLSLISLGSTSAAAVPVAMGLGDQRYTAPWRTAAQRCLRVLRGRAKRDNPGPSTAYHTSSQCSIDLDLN
From the text: Mouse TGR5 cAMP Production Assay
We evaluated compounds of the present invention for their ability to induce cAMP production in HEK-EBNA cells overexpressing the mouse TGR5 receptor. Human embryonic kidney cells (HEK293-EBNA) stably expressing mouse TGR5 receptor were established using the following procedure. Specifically, a commercially-obtained gene encoding mouse TGR5 (accession number BC116914) from Thermo Scientific (Waltham, Mass.) was cloned into an episomal expression vector. The resulting expression plasmid was then transfected into 293 c18 (ATCC® CRL10852™) cells, which express the Epstein-Barr virus nuclear antigen EBNA1 and can support the replication of episomal vectors. Selection for the plasmid was maintained with Hygromycin B. Cells were cultured and maintained in DMEM (Sigma; cat #6429) supplemented with 10% Fetal Bovine Serum, 1% penicillin/streptomycin, 2 mM L-alanine L-glutamine (GlutaMax), and 250 μg/mL Hygromycin.
Two cAMP production assays were developed.
1. Luminescent cAMP Production Assay
In this first cAMP production assay, the cAMP production was measured using DiscoveRx's cAMP XS+ kit following the manufacturer's recommended protocol.
Briefly, HEK293-EBNA cells stably overexpressing mouse TGR5 were harvested using non-enzymatic cell dissociation buffer (Sigma-Aldrich, St. Louis, Mo.), spun down, then resuspended in serum-free DMEM with 500 μM IBMX at a density of 1.25×10^6 cells/mL. 500 μL of cAMP antibody solution was added to […] of cell suspension and incubated at room temperature for 20 min.
Test compounds were serially diluted (half-log dilutions) in DMSO and then further diluted 1:50 in PBS, 10 mM HEPES buffer. 2 μL of serially diluted compound was added to a 384-well low volume plate (Greiner cat #784075) and centrifuged briefly. 2 μL of the cell/cAMP antibody mixture was then added to each compound-containing well and allowed to incubate at room temperature for one (1) hour. Following incubation, the XS+ kits' ED/Lysis/CL Substrate Working Solution was prepared following the manufacturer's recommended protocol and 4 μL was added to each well of the plate. The plate was then incubated for one (1) hour at room temperature. Following incubation, 4 μL of (Enzyme Acceptor) EA reagent was added to the plate and allowed to incubate overnight at room temperature. Luminescent signal was then detected using the Viewlux instrument (Perkin-Elmer, Waltham, Mass.).
In Table 33, EC50 values for both human and mouse cells were determined according to the TGR5 cAMP assays described above.

human TGR5 receptor = target: T2, human TGR5 receptor (Homo sapiens, UniProt Q8TDU6); experiment: Human TGR5 cAMP production assay; conditions: human TGR5, luminescent cAMP assay; coded A-D; read-out: Human TGR5 Lum. cAMP Activity (EC50)
T2 construct: host or cells: CHO-K1 (hTGR5-CHO cells)
T2 sequence (Q8TDU6 1-330): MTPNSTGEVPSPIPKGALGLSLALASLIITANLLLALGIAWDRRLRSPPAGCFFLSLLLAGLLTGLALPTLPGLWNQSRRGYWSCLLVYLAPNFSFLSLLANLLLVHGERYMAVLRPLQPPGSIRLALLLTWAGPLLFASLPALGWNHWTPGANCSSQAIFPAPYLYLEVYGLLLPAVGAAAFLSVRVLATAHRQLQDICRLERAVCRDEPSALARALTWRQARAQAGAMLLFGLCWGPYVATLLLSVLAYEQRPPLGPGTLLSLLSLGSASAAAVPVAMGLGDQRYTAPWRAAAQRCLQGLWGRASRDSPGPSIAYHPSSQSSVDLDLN
In short: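 CHO-K1 cells stably expressing human TGR5, with IBMX and cAMP antibody, were exposed to half-log serially diluted compound for 1 h at room temperature. cAMP measured by enzyme-fragment complementation luminescence (XS+ kit) after overnight incubation; EC50 values reported.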

mouse TGR5 receptor [2] = target: T1, mouse TGR5 receptor; experiment: Mouse TGR5 cAMP production assay (HTRF, Cisbio cAMP HiRange); conditions: HEK293-EBNA cells overexpressing mouse TGR5, HTRF cAMP HiRange; coded A-D
In short: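 cAMP read by HTRF competition after 1 h room-temperature compound exposure of mouse TGR5-overexpressing HEK293-EBNA cells. Cells were suspended in serum-free DMEM containing 500 μM IBMX; compounds ran as 12-point half-log dilutions in duplicate; EC50 derived.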

O=S(=O)(NCc1cccc(-c2ccncc2)c1)c1cccc(C(F)(F)F)c1 [Compound 1AR]
EC50 (mouse TGR5 receptor [1]): 1000 to 30000 nM | EC50 (human TGR5 receptor): 100 to 999 nM

O=S(=O)(NCc1ccc(F)c(-c2ccncc2)c1)c1cccc(C(F)(F)F)c1 [Compound 1AS]
EC50 (mouse TGR5 receptor [1]): 1000 to 30000 nM | EC50 (human TGR5 receptor): 100 to 999 nM

O=S(=O)(NCc1ccc(F)c(-c2ccncc2Cl)c1)c1cccc(C(F)(F)F)c1 [Compound 1AT]
EC50 (mouse TGR5 receptor [1]): 1000 to 30000 nM | EC50 (human TGR5 receptor): 1000 to 30000 nM

O=S(=O)(NCc1cc(-c2ccncc2)ccc1F)c1cccc(C(F)(F)F)c1 [Compound 1AU]
EC50 (mouse TGR5 receptor [1]): 1000 to 30000 nM | EC50 (human TGR5 receptor): 1000 to 30000 nM

O=S(=O)(NCc1cc(-c2ccncc2Cl)ccc1F)c1cccc(C(F)(F)F)c1 [Compound 1AV]
EC50 (mouse TGR5 receptor [1]): 1000 to 30000 nM | EC50 (human TGR5 receptor): 1000 to 30000 nM

C[C@H](NS(=O)(=O)c1cccc(C(F)(F)F)c1)c1cccc(-c2ccncc2)c1 [Compound 1AW]
EC50 (mouse TGR5 receptor [1]): 1000 to 30000 nM | EC50 (human TGR5 receptor): 100 to 999 nM

C[C@H](NS(=O)(=O)c1cccc(C(F)(F)F)c1)c1cccc(-c2ccncc2Cl)c1 [Compound 1AX]
EC50 (mouse TGR5 receptor [1]): 100 to 999 nM | EC50 (human TGR5 receptor): 100 to 999 nM

C[C@H](NS(=O)(=O)c1cccc(C(F)(F)F)c1)c1cccc(-c2ccncc2F)c1 [Compound 1AY]
EC50 (mouse TGR5 receptor [1]): 1000 to 30000 nM | EC50 (human TGR5 receptor): 100 to 999 nM

COc1cnccc1-c1cccc([C@H](C)NS(=O)(=O)c2cccc(C(F)(F)F)c2)c1 [Compound 1AZ]
EC50 (mouse TGR5 receptor [1]): 1000 to 30000 nM | EC50 (human TGR5 receptor): < 100 nM

C[C@@H](NS(=O)(=O)c1cccc(C(F)(F)F)c1)c1cccc(-c2ccncc2)c1 [Compound 1BB]
EC50 (mouse TGR5 receptor [1]): 1000 to 30000 nM | EC50 (human TGR5 receptor): 100 to 999 nM

C[C@@H](NS(=O)(=O)c1cccc(C(F)(F)F)c1)c1cccc(-c2ccncc2Cl)c1 [Compound 1BC]
EC50 (mouse TGR5 receptor [1]): 100 to 999 nM | EC50 (human TGR5 receptor): 100 to 999 nM

C[C@@H](NS(=O)(=O)c1cccc(C(F)(F)F)c1)c1cccc(-c2ccncc2F)c1 [Compound 1BD]
EC50 (mouse TGR5 receptor [1]): 1000 to 30000 nM | EC50 (human TGR5 receptor): 100 to 999 nM

COc1cnccc1-c1cccc([C@@H](C)NS(=O)(=O)c2cccc(C(F)(F)F)c2)c1 [Compound 1BE]
EC50 (mouse TGR5 receptor [1]): 100 to 999 nM | EC50 (human TGR5 receptor): 100 to 999 nM

Cc1cnccc1-c1cccc(CNS(=O)(=O)c2cccc(C(F)(F)F)c2)c1 [Compound 1BF]
EC50 (mouse TGR5 receptor [1]): 100 to 999 nM | EC50 (human TGR5 receptor): 100 to 999 nM

Cc1cnccc1-c1cccc(C2CN(CCCC(=O)NCCS(=O)(=O)O)CCN2S(=O)(=O)c2cccc(Cl)c2C)c1 (stereo not drawn) [Compound 53AA, 2-(4-(4-((3-chloro-2-methylphenyl)sulfonyl)-3-(3-(3-methylpyridin-4-yl)phenyl)piperazin-1-yl)butanamido)ethanesulfonic acid]
EC50 (human TGR5 receptor): 100 to 999 nM | EC50 (mouse TGR5 receptor [2]): < 100 nM

CCc1cnccc1-c1cccc(C2CN(C(=O)CCC(=O)NCCS(=O)(=O)O)CCN2S(=O)(=O)c2cccc(Cl)c2C)c1 (stereo not drawn) [Compound 53AB, 2-(4-(4-((3-chloro-2-methylphenyl)sulfonyl)-3-(3-(3-ethylpyridin-4-yl)phenyl)piperazin-1-yl)-4-oxobutanamido)ethanesulfonic acid]
EC50 (human TGR5 receptor): 100 to 999 nM | EC50 (mouse TGR5 receptor [2]): < 100 nM

CCc1cnccc1-c1cccc(C2CN(C(=O)CCC(=O)NCCCS(=O)(=O)O)CCN2S(=O)(=O)c2cccc(Cl)c2C)c1 (stereo not drawn) [Compound 53AC, 3-(4-(4-((3-chloro-2-methylphenyl)sulfonyl)-3-(3-(3-ethylpyridin-4-yl)phenyl)piperazin-1-yl)-4-oxobutanamido)propane-1-sulfonic acid]
EC50 (human TGR5 receptor): 100 to 999 nM | EC50 (mouse TGR5 receptor [2]): < 100 nM

Cc1cnccc1-c1cccc(C2CCCCN2S(=O)(=O)c2ccccc2C(F)(F)F)c1 (stereo not drawn) [Compound 54, 3-methyl-4-(3-(1-((2-(trifluoromethyl)phenyl)sulfonyl)piperidin-2-yl)phenyl)pyridine]
EC50 (human TGR5 receptor): < 100 nM | EC50 (mouse TGR5 receptor [2]): 100 to 999 nM
